# Active and inactive are the calls of the source. The rule behind the calls is not given here.
# How the values were obtained:
# [1] = molecular target: T1, von Hippel-Lindau disease tumor suppressor/Son of sevenless homolog 2 (Homo sapiens) (UniProt P40337+Q07890); assay: Protac activity at VHL/SOS2 in human ASPC1 cells assessed as SOS2 mRNA level at 1 uM incubated for 24 to 72 hr by qRT PCR analysis; assay type: cell-based; settings: time 24-72 hrs
# [2] = molecular target: T1, von Hippel-Lindau disease tumor suppressor/Son of sevenless homolog 2 (Homo sapiens); assay: Protac activity at VHL/SOS2 in human NCI-H358 cells assessed as SOS2 protein degradation at 9.8 to 2500 nM incubated for 24 hr by Western blot analysis; assay type: cell-based; settings: dose 9.8-2500 nM, DDE = dose-dependent effect
# [3] = molecular target: von Hippel-Lindau disease tumor suppressor/Son of sevenless homolog 1 (Homo sapiens, UniProt Q07889+P40337, G12D); assay: Protac activity at VHL/SOS1 in human SK-LU-1 cells harboring KRAS G12D mutant assessed as SOS1 protein degradation incubated for 24 hr by Western blot analysis; assay type: cell-based
# von Hippel-Lindau disease tumor suppressor/Son of sevenless homolog 1 (Homo sapiens, UniProt Q07889+P40337, G12D), sequence (P40337 whole entry, looked up, stated change not applied): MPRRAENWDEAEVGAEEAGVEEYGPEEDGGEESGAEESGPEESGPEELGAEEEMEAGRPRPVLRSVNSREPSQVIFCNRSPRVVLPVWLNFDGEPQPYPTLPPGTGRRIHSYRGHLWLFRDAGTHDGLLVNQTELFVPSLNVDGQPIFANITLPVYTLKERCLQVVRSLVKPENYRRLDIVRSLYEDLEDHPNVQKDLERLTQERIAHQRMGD
# von Hippel-Lindau disease tumor suppressor/Son of sevenless homolog 1 (Homo sapiens, UniProt Q07889+P40337, G12D), sequence (Q07889 whole entry, looked up, stated change not applied): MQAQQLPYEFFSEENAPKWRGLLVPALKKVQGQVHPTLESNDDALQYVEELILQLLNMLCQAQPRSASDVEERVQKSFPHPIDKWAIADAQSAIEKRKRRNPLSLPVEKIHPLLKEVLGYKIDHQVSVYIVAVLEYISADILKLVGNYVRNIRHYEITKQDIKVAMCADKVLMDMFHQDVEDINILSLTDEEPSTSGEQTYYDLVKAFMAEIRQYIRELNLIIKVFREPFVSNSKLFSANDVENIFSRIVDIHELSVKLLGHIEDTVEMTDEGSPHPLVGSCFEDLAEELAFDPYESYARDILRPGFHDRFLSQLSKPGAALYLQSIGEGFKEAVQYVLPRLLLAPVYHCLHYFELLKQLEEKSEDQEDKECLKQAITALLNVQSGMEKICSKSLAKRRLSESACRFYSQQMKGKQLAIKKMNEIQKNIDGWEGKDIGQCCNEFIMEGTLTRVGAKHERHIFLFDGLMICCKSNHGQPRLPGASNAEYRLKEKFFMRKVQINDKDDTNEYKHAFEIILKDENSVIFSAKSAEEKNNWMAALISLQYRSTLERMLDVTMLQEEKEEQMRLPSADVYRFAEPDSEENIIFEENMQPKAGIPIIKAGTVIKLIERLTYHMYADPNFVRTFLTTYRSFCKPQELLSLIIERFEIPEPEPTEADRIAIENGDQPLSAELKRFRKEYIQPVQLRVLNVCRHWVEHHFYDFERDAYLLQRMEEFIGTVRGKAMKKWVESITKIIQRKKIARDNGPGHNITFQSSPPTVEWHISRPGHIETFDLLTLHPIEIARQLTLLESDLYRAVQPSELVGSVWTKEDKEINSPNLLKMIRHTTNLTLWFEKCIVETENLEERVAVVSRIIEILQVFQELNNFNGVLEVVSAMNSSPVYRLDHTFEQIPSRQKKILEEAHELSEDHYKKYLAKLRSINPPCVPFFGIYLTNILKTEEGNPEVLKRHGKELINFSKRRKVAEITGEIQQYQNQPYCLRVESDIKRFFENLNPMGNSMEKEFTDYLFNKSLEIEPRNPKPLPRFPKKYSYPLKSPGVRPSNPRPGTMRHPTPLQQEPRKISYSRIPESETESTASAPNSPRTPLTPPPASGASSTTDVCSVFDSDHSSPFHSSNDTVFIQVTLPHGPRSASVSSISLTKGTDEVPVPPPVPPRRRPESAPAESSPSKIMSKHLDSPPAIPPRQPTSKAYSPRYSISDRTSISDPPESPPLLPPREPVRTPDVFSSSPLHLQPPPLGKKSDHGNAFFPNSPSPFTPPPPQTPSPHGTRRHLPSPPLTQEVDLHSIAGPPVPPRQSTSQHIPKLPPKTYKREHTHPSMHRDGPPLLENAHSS
# [4] = molecular target: T2, von Hippel-Lindau disease tumor suppressor/Son of sevenless homolog 1 (Homo sapiens, UniProt Q07889+P40337, G12C); assay: Protac activity at VHL/SOS1 in human NCI-H358 cells harboring KRAS G12C mutant assessed as SOS1 protein degradation incubated for 24 hr by Western blot analysis; assay type: cell-based
# T2 sequence (P40337 whole entry, looked up, stated change not applied): as the sequence (P40337 whole entry, looked up, stated change not applied) above
# T2 sequence (Q07889 whole entry, looked up, stated change not applied): as the sequence (Q07889 whole entry, looked up, stated change not applied) above
# [5] = Acute toxicity in BALB/c mouse assessed as change in body weight at 20 mg/kg, ip once daily for 7 days; assay type: organism-based; settings: in vivo, 168 h, time 7 day
# [6] = Effect of compound on human ASPC1 cells harboring KRAS G12D mutant assessed as inhibition of ERK phosphorylation incubated for 24 hr by Western blot analysis; assay type: functional, cell-based; settings: ASPC1, 24 h
# [7] = Cmax in BALB/c mouse at 10 mg/kg, ip measured after 24 hrs by LC-MS/MS analysis; assay type: ADME, organism-based; design: dose 10 mg/kg, time 24 hrs, route ip; settings: in vivo
# [8] = system: A549; assay: Antiproliferative activity against human A549 cells harboring KRAS G12S mutant assessed as cell growth inhibition incubated for 7 days by CellTiter-Glo 3D cell viability assay; assay type: functional, cell-based; settings: A549, 168 h
# [9] = Acute toxicity in BALB/c mouse assessed as change in body weight at 10 mg/kg, ip once daily for 7 days; assay type: organism-based; settings: in vivo, 168 h, time 7 day
# [10] = molecular target: T2, von Hippel-Lindau disease tumor suppressor/Son of sevenless homolog 1; assay: Protac activity at VHL/SOS1 in human MIA PaCa-2 cells harboring KRAS G12C mutant assessed as SOS1 protein degradation incubated for 24 hr by Western blot analysis; assay type: cell-based
# [11] = system: SK-LU-1; assay: Antiproliferative activity against human SK-LU-1 cells harboring KRAS G12D mutant assessed as cell growth inhibition incubated for 7 days by CellTiter-Glo 3D cell viability assay; assay type: functional, cell-based; settings: SK-LU-1, 168 h
# [12] = molecular target: von Hippel-Lindau disease tumor suppressor/Son of sevenless homolog 1/GTPase KRas (Homo sapiens) (UniProt Q07889+P01116+P40337); assay: Protac activity at SOS1/KRAS E3 ligase in human NCI-H358 cells assessed as KRAS protein level at 2.5 uM measured after 24 hr by […] analysis; assay type: cell-based
# [13] = system: NCI-H358; assay: Effect of compound on human NCI-H358 cells assessed as decrease in phophorylated ERK level at 1 uM and measured after 6 to 24 hr by Western blot analysis; assay type: functional, cell-based; settings: time 6-24 hrs
# T1 sequence (P40337 whole entry, looked up): as the sequence (P40337 whole entry, looked up, stated change not applied) above
# T1 sequence (Q07890 whole entry, looked up): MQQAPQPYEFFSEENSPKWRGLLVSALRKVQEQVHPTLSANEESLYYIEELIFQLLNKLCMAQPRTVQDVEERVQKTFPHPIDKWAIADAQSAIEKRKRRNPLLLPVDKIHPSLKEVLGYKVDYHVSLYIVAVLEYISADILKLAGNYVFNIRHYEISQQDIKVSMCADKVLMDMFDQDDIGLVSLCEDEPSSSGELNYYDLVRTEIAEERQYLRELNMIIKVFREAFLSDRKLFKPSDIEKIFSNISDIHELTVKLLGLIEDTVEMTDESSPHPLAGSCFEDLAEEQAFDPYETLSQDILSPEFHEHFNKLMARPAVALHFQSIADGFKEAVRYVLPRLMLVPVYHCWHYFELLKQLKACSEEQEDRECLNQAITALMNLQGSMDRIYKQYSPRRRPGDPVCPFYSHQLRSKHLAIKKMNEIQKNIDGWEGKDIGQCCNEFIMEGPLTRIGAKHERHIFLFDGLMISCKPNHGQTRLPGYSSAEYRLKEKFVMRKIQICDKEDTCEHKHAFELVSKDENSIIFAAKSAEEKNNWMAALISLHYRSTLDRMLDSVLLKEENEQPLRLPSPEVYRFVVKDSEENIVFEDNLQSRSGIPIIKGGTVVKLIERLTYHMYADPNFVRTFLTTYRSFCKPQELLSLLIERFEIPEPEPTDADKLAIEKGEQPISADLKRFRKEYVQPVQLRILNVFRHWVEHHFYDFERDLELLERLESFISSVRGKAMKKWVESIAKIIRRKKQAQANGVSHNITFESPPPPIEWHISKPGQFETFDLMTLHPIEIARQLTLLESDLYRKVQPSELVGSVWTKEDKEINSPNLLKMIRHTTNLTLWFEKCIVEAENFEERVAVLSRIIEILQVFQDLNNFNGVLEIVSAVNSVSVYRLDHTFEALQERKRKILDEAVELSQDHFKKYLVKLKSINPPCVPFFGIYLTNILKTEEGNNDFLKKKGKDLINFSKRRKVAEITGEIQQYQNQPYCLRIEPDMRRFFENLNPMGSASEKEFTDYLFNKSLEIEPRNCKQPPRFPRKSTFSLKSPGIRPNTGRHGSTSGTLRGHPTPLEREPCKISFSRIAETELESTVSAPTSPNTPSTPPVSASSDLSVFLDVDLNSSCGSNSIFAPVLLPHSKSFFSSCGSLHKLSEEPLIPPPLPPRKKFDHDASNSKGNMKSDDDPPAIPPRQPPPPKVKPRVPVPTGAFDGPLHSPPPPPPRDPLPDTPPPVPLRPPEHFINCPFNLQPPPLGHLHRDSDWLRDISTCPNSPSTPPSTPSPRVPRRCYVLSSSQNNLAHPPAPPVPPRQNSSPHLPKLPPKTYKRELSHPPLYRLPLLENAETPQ
compound,measurement,setting,value
Cc1cc(Cn2c(N3CC4(CNC4)C3)nc3c(N4CCN(CCCCCCCCC(=O)N[C@H](C(=O)N5C[C@H](O)C[C@H]5C(=O)N[C@@H](C)c5ccc(-c6scnc6C)cc5)C(C)(C)C)CC4)cc(Cl)cc32)cc(C)c1F,Activity,[1],Active
same,Activity,[2],Dde
same,DC50,[3],104 nM
same,DC50,[4],98 nM
same,Activity,[5],Non-Toxic
same,IC50,[6],72.3 nM
same,Cmax,[7],1220 ng/mL
same,IC50,[8],232 nM
same,Activity,[9],Non-Toxic
same,DC50,[10],255 nM
same,IC50,[11],115 nM
same,Activity,[12],Active
same,Activity,[13],Active

# Reference: ChEMBL document CHEMBL5154769, “Discovery of the First-in-Class Agonist-Based SOS1 PROTACs Effective in Human Cancer Cells Harboring Various KRAS Mutations” (J Med Chem, 2022)
